Source: patent publication US20140080787A1, “Method for the Treatment of Neuropathies Associated with Charcot-Marie-Tooth 1A (CMT1A) Disease” (National Institutes of Health, US Dept of Health and Human …, priority 2012, published 2014)

How the values were obtained:
human PMP22 gene = assay: Orthogonal reporter assays (firefly luciferase or β-lactamase coupled to the intronic regulatory element of the human PMP22 gene); format: cell-based; conditions: targeted screening, firefly luciferase and β-lactamase reporters
Excerpt: A cross-validating pair of orthogonal reporter assays, which employ either firefly luciferase or β-lactamase coupled to the intronic regulatory element of the human PMP22 gene, were used to measure CMT1A PMP22 overexpression as a means of identifying transcriptional inhibitors with therapeutic value toward CMT1A. […] A description of assays and methods used to identify compounds has been provided by S-W Jang and co-authors (Identification of drug modulators targeting gene-dosage disease. ACS Chem Biol., 2012, 7, 1205-1213).

PMP22 [1] = assay: PMP22 expression in S16 Schwann cells, quantitative rtPCR; format: cell-based; conditions: for RQ (Relative Quantity) PMP22-P1 / RQ (Relative Quantity) PMP22-P2: normalized to beta-actin, untreated = 1.000; for PMP22 P1 relative level of expression / PMP22 P2 relative level of expression: 24 h, S16 Schwann cells, relative to untreated control, normalized to 18S rRNA, ± S.D.
Method: To determine if proteasome inhibitors affect endogenous PMP22 expression, quantitative rtPCR was utilized to measure the abundance of PMP22 mRNA transcript in the S16 Schwann cells, which were plated in 6 well plates and treated with each compound at the indicated concentrations. After 24 h., the cells were harvested to purify RNA, 1 μg of which was converted into cDNA. Quantitative rtPCR was performed in either SYBR green-based reactions or Taqman-based customized 384-well micro fluidic arrays using a ViiA7 system or StepOne Plus (Applied Biosystems). Abundance of gene expression was first normalized to beta-actin (ActB, NM_031144.2) or 18 S rRNA, which served as an endogenous loading control across samples, and then determined relative to the untreated sample for each gene using the comparative Ct method described by K. J. Livak and T. D. Schmittgen (Analysis of relative gene expression data using real-time quantitative PCR and the 2^ΔΔCT method. Methods, 2001, 25, 402-408).
S16 Schwann cells were treated with indicated proteasome inhibitors for 24 h. RNA was prepared and analyzed by quantitative rtPCR using promoter specific primers for PMP22 (labeled P1 and P2). Relative levels of expression are shown relative to untreated control cells. Values are normalized to 18S rRNA. Errors reflect the standard deviation (S.D.) of technical duplicates.
RQ=Relative Quantity, normalized to beta-actin

PMP22 [2] = assay: PMP22 expression in sciatic nerve of CMT1A rats, quantitative rtPCR; format: in vivo, rat; conditions: vehicle = 1.00, ± SEM
Excerpt: Abundance of gene expression could be determined relative to an untreated sample for each gene using the comparative Ct method as described in the procedure published by K. J. Livak and T. D. Schmittgen (Analysis of relative gene expression data using real-time quantitative PCR and the 2^ΔΔCT method. Methods, 2001, 25, 402-408).
Changes in the expression of peripheral and central nervous system gene makers (including myelin markers such as PMP22, P0, and Myelin Basic Protein) were followed after proteasome inhibitor administration, and a reduction of PMP22 expression was observed. Changes in PMP22 gene expression were correlated with measures of neurological function that are used to measure the CMT1A neuropathy. These measures of neurological function included measures of motor coordination, nerve conduction velocity, and histology of femoral motor and sensory nerves. Relevant measures of CMT1A function have been outlined by J. C. Noreel and co-authors (Behavioural profiling of a murine Charcot-Marie-Tooth disease type 1A model. Eur. J. Neurosci. 2001, 13, 1625-1634).
Bortezomib was administered subcutaneously (s.c.) at a dose equivalent to 0.1 mg substance/kg of body weight, using an injection concentration of 2.5 mg of substance/ml. RNA was purified from sciatic nerve at 7 d post-injection. […] Errors indicate the standard error of the mean (SEM).
Oprozomib (ONX-0912) was administered at the indicated doses by oral gavage and RNA was purified from sciatic nerve at 7 d. […] Errors indicate SEM. Vehicle was 10% EtOH, 10% Tween80, 80% 10 mM citrate buffer pH=3.5 (see; Zhou, H-J. et al., Design and Synthesis of an Orally Bioavailable and Selective Peptide Epoxyketone Proteasome Inhibitor (PR-047). J. Med. Chem., 2009, 52, 3028-3038).

PMP22 [3] = assay: Effect on PMP22 expression in mice after a single s.c. injection; format: in vivo; conditions: 10 mg/kg, n = 4, vehicle printed 0.739 ± 0.07
Excerpt: MLN9708. Anatomical areas of subcutaneous administration could include the right or left thigh, or abdomen. The same anatomical area can be used for repeated administration. However, injections are typically to be rotated between sites (see; Fledrich, R. M. et al., Murine therapeutic models for Charcot-Marie-Tooth (CMT) disease. British Medical Bulletin, 2012, 102, 89-113).

[4] = 0.1 mg/kg s.c., sciatic nerve, 7 d post-injection, n = 9
[5] = 10 mg/kg oral gavage, sciatic nerve at 7 d, n = 7
[6] = 30 mg/kg oral gavage, sciatic nerve at 7 d, n = 7

With CC(C)C[C@H](NC(=O)[C@H](Cc1ccccc1)NC(=O)c1cnccn1)B(O)O [Bortezomib, [(1R)-3-methyl-1-({(2S)-3-phenyl-2-[(pyrazin-2-ylcarbonyl)amino]propanoyl}amino)butyl]boronic acid] the “Effect on CMT1A PMP22 overexpression in reporter assays” value (human PMP22 gene) was “selectively reducing CMT1A expression”, the “RQ (Relative Quantity) PMP22-P1” value (PMP22 [1]; 10 nM) was 0.517 and the “RQ (Relative Quantity) PMP22-P2” value (PMP22 [1]; 10 nM) was 0.809. The “RQ (Relative Quantity) PMP22-P1” value (PMP22 [1]; 100 nM) was 0.032, the “RQ (Relative Quantity) PMP22-P2” value (PMP22 [1]; 100 nM) was 0.153 and the “RQ (Relative Quantity) PMP22-P1” value (PMP22 [1]; 1 μM) was 0.041. For the same molecule, the “RQ (Relative Quantity) PMP22-P2” value (PMP22 [1]; 1 μM) was 0.232, the “RQ (Relative Quantity) PMP22-P1” value (PMP22 [1]; 10 μM) was 0.077 and the “RQ (Relative Quantity) PMP22-P2” value (PMP22 [1]; 10 μM) was 0.285. For the same molecule, the “PMP22 P1 relative level” value (PMP22 [2]; [4]) was 0.675 ± 0.17, the “PMP22 P2 relative level” value (PMP22 [2]; [4]) was 0.4 ± 0.07 and the “Total PMP22 relative level” value (PMP22 [2]; [4]) was 0.3 ± 0.05.
With CC(C)C[C@H](NC(=O)[C@H](CCc1ccccc1)NC(=O)CN1CCOCC1)C(=O)N[C@@H](Cc1ccccc1)C(=O)N[C@@H](CC(C)C)C(=O)[C@@]1(C)CO1 [Carfilzomib, (S)-4-nethyl-N-((S)-1-(((S)-4-methyl-1-((R)-2-methyloxiran-2-yl)-1-oxopentan-2-yl)amino)-1-oxo-3-phenylpropan-2-yl)-2-((S)-2-(2-morpholinoacetamido)-4-phenylbutanamido)pentanamide] the “PMP22 P1 relative level of expression” value (PMP22 [1]; 1 nM) was 0.003 ± 0.0004, the “PMP22 P2 relative level of expression” value (PMP22 [1]; 1 nM) was 0.012 ± 0.004 and the “PMP22 P1 relative level of expression” value (PMP22 [1]; 2.5 nM) was 0.006 ± 0.0005. The “PMP22 P2 relative level of expression” value (PMP22 [1]; 2.5 nM) was 0.027 ± 0.0037, the “PMP22 P1 relative level of expression” value (PMP22 [1]; 5 nM) was 0.006 ± 0.0019 and the “PMP22 P2 relative level of expression” value (PMP22 [1]; 5 nM) was 0.037 ± 0.00026. For the same molecule, the “PMP22 P1 relative level of expression” value (PMP22 [1]; 10 nM) was 0.014 ± 0.0007, the “PMP22 P2 relative level of expression” value (PMP22 [1]; 10 nM) was 0.046 ± 0.0022 and the “PMP22 P1 relative level of expression” value (PMP22 [1]; 100 nM) was 0.009 ± 0.0055. The “PMP22 P2 relative level of expression” value (PMP22 [1]; 100 nM) was 0.027 ± 0.017, the “PMP22 P1 relative level of expression” value (PMP22 [1]; 1 μM) was 0.008 ± 0.0024 and the “PMP22 P2 relative level of expression” value (PMP22 [1]; 1 μM) was 0.036 ± 0.0049.
For CC(C)C[C@H](NC(=O)CNC(=O)c1cc(Cl)ccc1Cl)B(O)O [MLN2238, (R)-1-(2-(2,5-dichlorobenzamido)acetamido)-3-methylbutylboronic acid], the “PMP22 P1 relative level of expression” value (PMP22 [1]; 25 nM) was 1.177 ± 0.42, the “PMP22 P2 relative level of expression” value (PMP22 [1]; 25 nM) was 0.837 ± 0.041 and the “PMP22 P1 relative level of expression” value (PMP22 [1]; 50 nM) was 0.826 ± 0.225. The “PMP22 P2 relative level of expression” value (PMP22 [1]; 50 nM) was 0.865 ± 0.141, the “PMP22 P1 relative level of expression” value (PMP22 [1]; 100 nM) was 0.005 ± 0.0005 and the “PMP22 P2 relative level of expression” value (PMP22 [1]; 100 nM) was 0.020 ± 0.005. The “PMP22 P1 relative level of expression” value (PMP22 [1]; 1 μM) was 0.003 ± 0.0007, the “PMP22 P2 relative level of expression” value (PMP22 [1]; 1 μM) was 0.022 ± 0.0026 and the “PMP22 P1 relative level of expression” value (PMP22 [1]; 10 μM) was 0.007 ± 0.00003. The “PMP22 P2 relative level of expression” value (PMP22 [1]; 10 μM) was 0.018 ± 0.0123.
CC(C)C[C@H](NC(=O)CNC(=O)c1cc(Cl)ccc1Cl)B1OC(=O)CC(CC(=O)O)(C(=O)O)O1 (stereo partly drawn) [MLN9708, 4-(carboxymethyl)-2-((R)-1-(2-(2,5-dichlorobenzamido)acetamido)-3-methylbutyl)-6-oxo-1,3,2-dioxaborinane-4-carboxylic acid] was tested, and the “Total PMP22 relative level” value (PMP22 [3]) was 1.00 ± 0.09.
COC[C@H](NC(=O)c1cnc(C)s1)C(=O)N[C@@H](COC)C(=O)N[C@@H](Cc1ccccc1)C(=O)[C@@]1(C)CO1 [Oprozomib, O-methyl-N-[(2-methyl-5-thiazolyl)carbonyl]-L-seryl-O-methyl-N-[(1S)-2-[(2R)-2-methyl-2-oxiranyl]-2-oxo-1-(phenylmethyl)ethyl]-L-serinamide] was tested, and the “PMP22 P1 relative level” value (PMP22 [2]; [5]) was 0.46 ± 0.15, the “PMP22 P2 relative level” value (PMP22 [2]; [5]) was 3.1 ± 0.9 and the “Total PMP22 relative level” value (PMP22 [2]; [5]) was 0.62 ± 0.17. For the same molecule, the “PMP22 P1 relative level” value (PMP22 [2]; [6]) was 0.46 ± 0.1, the “PMP22 P2 relative level” value (PMP22 [2]; [6]) was 1.87 ± 0.77 and the “Total PMP22 relative level” value (PMP22 [2]; [6]) was 0.61 ± 0.07.
